How the values were obtained:
Format in all cases: cell-based
[1] = system: parkin null mouse mDA neurons; assay: Mitochondrial defects of parkin null mouse mDA neurons (immunocytochemistry); settings: for level of the elongated mitochondria (FIG. 9): parkin null mDA neurons treated for 24 hours, 7 DIV; for relative numbers of the neurons containing fragmented mitochondria (FIG. 10): parkin null mouse mDA neurons, compared to heterozygous littermates
Description: (§1) Primary mouse DA neuron cultures were prepared from embryonic day (E) 13.5 mouse midbrain of parkin heterogeneous(+/−) and null(−/−) embryos [Neurobasal Media (Invitrogen)].

[2] = system: cultured rat hippocampal neurons transfected with parkin shRNA; assay: Mitochondrial fragmentation in neurons transfected with parkin shRNA (immunocytochemistry); settings: AA 48 hours, CsA 24 hours, Ru360 24 hours; for dendritic mitochondrial fragmentation induced by parkin knockdown (FIG. 4): VDAC1 shRNA 72 hours transfection, parkin shRNA at 13 DIV; for relative numbers of the neurons containing fragmented mitochondria (FIG. 5): parkin-knockdowned hippocampal neurons, VDAC1 shRNA 72 hours
Excerpt: EGFP was used as a fluorescence marker to confirm the transfection of neuron with shRNA vector, and DsRed2-mito [pDsRed2-mito (Clontech)] was used as a fluorescence marker to observe mitochondria in neurons.

[3] = system: cultured rat hippocampal neurons transfected with PINK1 shRNA; assay: Mitochondrial fragmentation in neurons transfected with PINK1 shRNA (immunocytochemistry); settings: AA 48 hours, CsA 24 hours, Ru360 24 hours; for dendritic mitochondrial fragmentation induced by knockdown of PINK1 (FIG. 7): VDAC1 shRNA 72 hours transfection, PINK1 shRNA at 13 DIV; for relative number of the neurons containing fragmented mitochondria (FIG. 8): PINK1-knockdowned hippocampal neurons, VDAC1 shRNA 72 hours
[4] = system: parkin null mouse mDA neurons; assay: Synaptic activity (mEPSCs) of parkin null mouse mDA neurons; settings: condition same as Experiment 6
Description: as §1
It was examined whether PINK1-Parkin-VDAC1 pathway regulates the synaptic activity of the mDA neurons. To this end, the frequency and amplitude of miniature excitatory postsynaptic currents (mEPSCs) of parkin heterozygous and null mouse mDA neurons were measured.

Compound	level of the elongated mitochondria (FIG. 9) [1]	relative numbers of the neurons containing fragmented mitochondria (FIG. 10) [1]	dendritic mitochondrial fragmentation induced by parkin knockdown (FIG. 4) [2]	relative numbers of the neurons containing fragmented mitochondria (FIG. 5) [2]	dendritic mitochondrial fragmentation induced by knockdown of PINK1 (FIG. 7) [3]	relative number of the neurons containing fragmented mitochondria (FIG. 8) [3]	frequency of mEPSCs (FIG. 12a) [4]
C[C@H]1[C@H](C)CC[C@]2(C(=O)O)CC[C@]3(C)C(=CC[C@@H]4[C@@]5(C)C[C@@H](O)[C@H](O)[C@@](C)(CO)[C@@H]5CC[C@]43C)[C@H]12 [AA, asiatic acid]	showed a significantly restored level of the elongated mitochondria	significantly prevented mitochondrial fragmentation in parkin null mouse mDA neurons	suppressed the dendritic mitochondrial fragmentation induced by parkin knockdown	prevents dendritic mitochondrial fragmentation in parkin-knockdowned hippocampal neurons and/or restores the fragmented mitochondria to normal elongated morphology	suppressed the dendritic mitochondrial fragmentation induced by knockdown of PINK1	prevents dendritic mitochondrial fragmentation in PINK1-knockdowned hippocampal neurons and/or restores the fragmented mitochondria to normal elongated morphology	restored the frequency of mEPSCs up to the level of heterozygotic neurons
Ru360	showed a significantly restored level of the elongated mitochondria	significantly prevented mitochondrial fragmentation in parkin null mouse mDA neurons	suppressed the dendritic mitochondrial fragmentation induced by parkin knockdown	prevents dendritic mitochondrial fragmentation in parkin-knockdowned hippocampal neurons and/or restores the fragmented mitochondria to normal elongated morphology	suppressed the dendritic mitochondrial fragmentation induced by knockdown of PINK1	prevents dendritic mitochondrial fragmentation in PINK1-knockdowned hippocampal neurons and/or restores the fragmented mitochondria to normal elongated morphology	restored the frequency of mEPSCs up to the level of heterozygotic neurons
cyclosporine A [CsA]	–	–	suppressed the dendritic mitochondrial fragmentation induced by parkin knockdown	–	suppressed the dendritic mitochondrial fragmentation induced by knockdown of PINK1	–	–
